This experiment deals with differentiated Thp1 monocytes. Description: In-vitro monocyte stimulation, TNFα and IL1β in supernatant by ELISA. Format: cell-based, human. The settings on record: for IL-1β in supernatant vs PBS control / TNFα in supernatant vs PBS control: differentiated Thp1 monocytes, 16 h, beta-pseudouridine 10 mM, allantoin 0.3 mg/mL. The text has this: Among significant metabolites (p<0.05, q<0.1) in our agnostic approach, five nucleic acid metabolites (e.g., beta-pseudouridine, 1-methyladenosine, N-2-methylguanosine, N-6-carbamoylthreonyladenosine, and allantoin) were identified for in vitro monocyte stimulation experiments. See, Table 2. These nucleic acid metabolites may function as damage-associated molecular patterns, and stimulate TNFα and IL1β similar to HMGB-1 and LPS. Bleiblo et al. (2012) “The role of immunostimulatory nucleic acids in septic shock” Int J Clin Exp Med 5:1-23
THP-1 cells (American Type Cell Collection, Manassas, Va., USA) were cultured in suspension in RPMI1640 media (Gibco, Grand Island, N.Y., USA) supplemented with 10% fetal bovine serum, 2 mM L-glutamine, 100 U/mL penicillin, 100 […], and 100 µM sodium pyruvate (all from Gibco). To differentiate the monocytes, 0.33×10^6 cells/mL were suspended in media and treated with 5 ng/mL PMA and then plated. After 48 h, adhered cells were washed three times in PBS and then treated for 16 h with compounds of interest at concentrations described. All compounds were dissolved in endotoxin-free water.
Endotoxin was measured at 61.5-153.8 pg per 250 µL treatment of 10 mM dose beta-pseudouridine, compared to 4,000 pg/mL in LPS-positive control. After 16 h media was collected and TNFα and IL1β levels determined by ELISA (R&D Systems, Minneapolis, Minn., USA) according to manufacturer's instructions. Experiments were repeated after treatment with viral inhibitory peptide of TLR4 (VIPER) and polymyxin B (PMB).

On to `NC(=O)NC1NC(=O)NC1=O` (centres unmarked) [allantoin], for which the “IL-1β in supernatant vs PBS control” value was “significantly increased”.

For `O=c1[nH]cc([C@@H]2O[C@H](CO)[C@@H](O)[C@H]2O)c(=O)[nH]1` [pseudouridine], the “IL-1β in supernatant vs PBS control” value is listed as “increased” and the “TNFα in supernatant vs PBS control” value is listed as “increased”. Moreover, the “Cytokine (TNFα) stimulation, concentration dependence” value (beta-pseudouridine 0.0001-10 mM, 16 h (FIG. 5C)) is “concentration-dependent”. Also, the “Cytokine (TNFα) levels in the presence of TLR4-receptor inhibitor VIPER” value (beta-pseudouridine 10 mM with VIPER (TLR4-antagonist), 16 h (FIG. 5D)) was “significantly abrogated”. In addition, the “Cytokine (TNFα) levels in the presence of polymyxin B” value (beta-pseudouridine 10 mM with polymyxin B (PMB; 10 μM), 16 h (FIG. 5D)) is listed as “remained significantly elevated”. Further, for the setting “listed as beta-pseudouridine”, the “IL-1β in supernatant vs PBS control” value is on record as “stimulated significant release” and the “TNFα in supernatant vs PBS control” value is listed as “stimulated significant release”.

These data come from patent publication US10533989B2, “Metabolomics in pneumonia and sepsis” (University of Pittsburgh—Of the Commonwealth System of …, priority 2012, dated 2020).
